Reference: ChEMBL document CHEMBL1201862, “PubChem BioAssay data set” (2004)
The source made the active and inactive calls.

What was measured:
[1] = target: Serine/threonine-protein kinase 3 (Homo sapiens, UniProt Q13188); type: functional;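 also: measured as one member of a kinome-wide kinase panel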
[2] = target: Platelet-derived growth factor receptor alpha (Homo sapiens, UniProt P16234); experiment: Navigating the Kinome. Panel member name: PDGFRA; type: functional
[3] = target: Cell division cycle 7-related protein kinase (Homo sapiens, UniProt O00311); type: functional;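 also: value obtained from a kinome-wide kinase panel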
[4] = alpha-synuclein stem-loop translation blockers – luminescence, H4 neuroglioblastoma cells, dose confirmation, confirmation (AID 2454); type: functional, cell-based;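 also: H4 neuroglioblastoma cells carrying an alpha-synuclein 5'UTR luciferase reporter; potency for inhibition of the luciferase signal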
[5] = blockers of HIV-1 envelope-mediated cell-cell fusion – cherry-pick, dose response (AID 652057); type: functional, cell-based
[6] = target: T1, Serine/threonine-protein phosphatase (Candida dubliniensis (strain CD36 / CBS 7987 / NCPF 3949 / NRRLY-17841) (Yeast), UniProt B9W6M3); experiment: blockers of CaCl2-induced CDRE-lacZ signaling – S. cerevisiae, luminescence, secondary, dose response (AID 2388); type: functional, cell-based;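 also: yeast reporter cells carrying a calcineurin-responsive lacZ construct stimulated with calcium chloride; luminescent beta-galactosidase reporter signal in whole cells rather than isolated phosphatase activity; potency for inhibition where a drop in reporter signal means calcineurin blockade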
T1 sequence (B9W6M3 whole entry): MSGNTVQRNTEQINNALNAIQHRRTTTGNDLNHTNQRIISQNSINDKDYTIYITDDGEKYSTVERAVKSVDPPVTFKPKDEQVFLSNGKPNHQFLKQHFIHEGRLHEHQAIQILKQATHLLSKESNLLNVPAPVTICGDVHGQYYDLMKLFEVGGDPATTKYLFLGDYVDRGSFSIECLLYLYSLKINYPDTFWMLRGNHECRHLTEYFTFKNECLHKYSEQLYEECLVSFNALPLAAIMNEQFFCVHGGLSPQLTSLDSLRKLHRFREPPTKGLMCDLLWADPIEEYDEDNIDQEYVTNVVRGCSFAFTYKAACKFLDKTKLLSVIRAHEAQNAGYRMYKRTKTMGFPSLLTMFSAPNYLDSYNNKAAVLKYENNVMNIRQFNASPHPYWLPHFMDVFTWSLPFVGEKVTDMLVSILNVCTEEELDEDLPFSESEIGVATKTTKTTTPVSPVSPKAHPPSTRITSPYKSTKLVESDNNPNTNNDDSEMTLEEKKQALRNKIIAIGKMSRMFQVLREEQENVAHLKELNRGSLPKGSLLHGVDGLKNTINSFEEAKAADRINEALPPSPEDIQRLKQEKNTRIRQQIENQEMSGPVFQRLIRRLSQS

cells = type: functional, cell-based
Protein RecA = target: T2, Protein RecA (Mycobacterium tuberculosis, UniProt P9WHJ3); experiment: Fluorescence Cell-Free Homogeneous Dose Retest to Identify Inhibitors of RecA-Intein Splicing Activity. [Related pubchem assays (depositor defined):AID2097, AID2223, AID489010, AID492950]; type: functional
T2 sequence (P9WHJ3 whole entry): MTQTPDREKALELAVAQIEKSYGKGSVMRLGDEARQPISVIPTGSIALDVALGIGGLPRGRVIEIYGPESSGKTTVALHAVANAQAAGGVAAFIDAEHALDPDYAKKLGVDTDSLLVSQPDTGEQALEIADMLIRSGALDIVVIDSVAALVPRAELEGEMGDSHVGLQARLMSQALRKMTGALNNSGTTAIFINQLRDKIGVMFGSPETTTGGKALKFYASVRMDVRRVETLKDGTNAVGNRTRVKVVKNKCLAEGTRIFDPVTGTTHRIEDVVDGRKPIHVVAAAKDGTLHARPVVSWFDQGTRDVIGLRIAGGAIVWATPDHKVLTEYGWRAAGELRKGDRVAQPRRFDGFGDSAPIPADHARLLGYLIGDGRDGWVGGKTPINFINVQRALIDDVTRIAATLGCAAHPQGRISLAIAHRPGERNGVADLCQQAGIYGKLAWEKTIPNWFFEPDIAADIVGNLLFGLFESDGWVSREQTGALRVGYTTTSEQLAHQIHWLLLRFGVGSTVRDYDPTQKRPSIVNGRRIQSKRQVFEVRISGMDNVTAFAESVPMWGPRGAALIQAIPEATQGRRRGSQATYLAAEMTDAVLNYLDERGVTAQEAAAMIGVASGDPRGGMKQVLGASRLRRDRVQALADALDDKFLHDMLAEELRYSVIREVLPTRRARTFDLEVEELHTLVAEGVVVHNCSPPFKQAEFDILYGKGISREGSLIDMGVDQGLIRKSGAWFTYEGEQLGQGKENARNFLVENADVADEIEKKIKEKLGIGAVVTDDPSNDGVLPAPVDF

[7] = target: T3, Zinc finger protein mex-5 (Caenorhabditis elegans, UniProt Q9XUB2); experiment: potency of MEX-5 RNA-binding blockers – biochemical, C. elegans, fluorescence polarization, dose response (AID 1960)
T3 sequence (Q9XUB2 whole entry): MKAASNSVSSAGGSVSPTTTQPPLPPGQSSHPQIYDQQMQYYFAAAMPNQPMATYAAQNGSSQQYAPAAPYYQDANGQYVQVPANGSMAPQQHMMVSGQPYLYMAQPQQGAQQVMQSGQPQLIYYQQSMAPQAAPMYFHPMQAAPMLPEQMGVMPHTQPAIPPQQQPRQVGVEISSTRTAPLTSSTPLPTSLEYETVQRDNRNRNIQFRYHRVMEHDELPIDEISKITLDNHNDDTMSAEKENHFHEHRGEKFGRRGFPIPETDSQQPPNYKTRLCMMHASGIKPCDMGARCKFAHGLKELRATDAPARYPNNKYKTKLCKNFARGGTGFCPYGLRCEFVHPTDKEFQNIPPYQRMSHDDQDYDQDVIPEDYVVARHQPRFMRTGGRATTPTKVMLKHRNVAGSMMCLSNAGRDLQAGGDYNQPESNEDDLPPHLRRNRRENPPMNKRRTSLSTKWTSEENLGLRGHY

[8] = target: Cyclin-dependent kinase 5 (Homo sapiens, UniProt Q00535); type: functional;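 also: CDK5 measured as one member of a kinase profiling panel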
[9] = target: Tyrosine-protein kinase ABL1 (Homo sapiens, UniProt P00519); type: functional
LIM domain kinase 1 = LIM domain kinase 1 (Homo sapiens, UniProt P53667); experiment: Navigating the Kinome. Panel member name: LIMK1; type: functional
LIM domain kinase 1, sequence (P53667 whole entry, the tested form may be a part): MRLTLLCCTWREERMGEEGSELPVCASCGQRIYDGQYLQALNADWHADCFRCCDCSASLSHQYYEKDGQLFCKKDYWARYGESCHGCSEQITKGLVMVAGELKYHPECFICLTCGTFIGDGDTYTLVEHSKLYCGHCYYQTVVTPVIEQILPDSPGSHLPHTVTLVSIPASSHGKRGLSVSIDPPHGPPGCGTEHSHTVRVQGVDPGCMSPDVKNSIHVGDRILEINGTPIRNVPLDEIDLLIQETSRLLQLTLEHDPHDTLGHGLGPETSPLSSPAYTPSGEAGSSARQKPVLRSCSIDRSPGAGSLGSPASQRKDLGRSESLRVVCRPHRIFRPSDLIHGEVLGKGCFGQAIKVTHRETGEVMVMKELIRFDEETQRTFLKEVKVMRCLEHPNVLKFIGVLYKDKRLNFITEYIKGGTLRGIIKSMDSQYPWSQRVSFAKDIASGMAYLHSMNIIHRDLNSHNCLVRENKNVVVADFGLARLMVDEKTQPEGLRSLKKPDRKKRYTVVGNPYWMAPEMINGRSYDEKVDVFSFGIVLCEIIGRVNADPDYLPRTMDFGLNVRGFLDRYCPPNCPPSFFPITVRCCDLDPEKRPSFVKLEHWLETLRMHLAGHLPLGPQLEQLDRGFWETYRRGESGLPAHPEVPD

Tyrosine-protein kinase ABL1, sequence (P00519 whole entry, the tested form may be a part): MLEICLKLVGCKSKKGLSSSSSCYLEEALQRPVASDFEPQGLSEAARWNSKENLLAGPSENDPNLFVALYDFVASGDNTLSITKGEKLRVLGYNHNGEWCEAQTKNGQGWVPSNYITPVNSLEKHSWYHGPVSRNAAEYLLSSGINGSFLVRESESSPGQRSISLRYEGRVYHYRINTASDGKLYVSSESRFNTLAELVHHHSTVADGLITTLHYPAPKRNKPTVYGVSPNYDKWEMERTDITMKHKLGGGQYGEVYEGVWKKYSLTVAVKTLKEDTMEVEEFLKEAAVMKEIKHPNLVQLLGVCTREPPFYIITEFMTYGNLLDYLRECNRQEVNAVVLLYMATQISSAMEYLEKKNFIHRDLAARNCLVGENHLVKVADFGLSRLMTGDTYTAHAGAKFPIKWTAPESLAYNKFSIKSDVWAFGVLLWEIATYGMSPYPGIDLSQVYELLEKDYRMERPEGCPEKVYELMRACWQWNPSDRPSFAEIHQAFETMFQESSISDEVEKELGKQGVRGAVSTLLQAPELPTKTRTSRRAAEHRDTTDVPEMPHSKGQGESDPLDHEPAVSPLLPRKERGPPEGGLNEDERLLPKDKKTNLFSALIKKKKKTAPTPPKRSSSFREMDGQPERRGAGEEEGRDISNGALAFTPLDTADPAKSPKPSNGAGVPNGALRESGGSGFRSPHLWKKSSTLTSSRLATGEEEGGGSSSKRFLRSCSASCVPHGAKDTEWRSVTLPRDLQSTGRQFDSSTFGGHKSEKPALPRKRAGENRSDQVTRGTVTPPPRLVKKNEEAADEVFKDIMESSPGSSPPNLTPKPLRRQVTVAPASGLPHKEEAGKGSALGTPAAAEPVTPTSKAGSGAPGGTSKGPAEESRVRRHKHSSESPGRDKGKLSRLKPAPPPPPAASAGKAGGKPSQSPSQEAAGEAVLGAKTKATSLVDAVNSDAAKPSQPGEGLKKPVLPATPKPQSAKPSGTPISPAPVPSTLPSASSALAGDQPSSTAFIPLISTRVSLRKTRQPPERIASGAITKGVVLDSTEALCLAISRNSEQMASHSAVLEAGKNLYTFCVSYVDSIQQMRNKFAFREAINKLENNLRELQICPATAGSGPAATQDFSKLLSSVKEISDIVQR
Serine/threonine-protein kinase 3, sequence (Q13188 whole entry): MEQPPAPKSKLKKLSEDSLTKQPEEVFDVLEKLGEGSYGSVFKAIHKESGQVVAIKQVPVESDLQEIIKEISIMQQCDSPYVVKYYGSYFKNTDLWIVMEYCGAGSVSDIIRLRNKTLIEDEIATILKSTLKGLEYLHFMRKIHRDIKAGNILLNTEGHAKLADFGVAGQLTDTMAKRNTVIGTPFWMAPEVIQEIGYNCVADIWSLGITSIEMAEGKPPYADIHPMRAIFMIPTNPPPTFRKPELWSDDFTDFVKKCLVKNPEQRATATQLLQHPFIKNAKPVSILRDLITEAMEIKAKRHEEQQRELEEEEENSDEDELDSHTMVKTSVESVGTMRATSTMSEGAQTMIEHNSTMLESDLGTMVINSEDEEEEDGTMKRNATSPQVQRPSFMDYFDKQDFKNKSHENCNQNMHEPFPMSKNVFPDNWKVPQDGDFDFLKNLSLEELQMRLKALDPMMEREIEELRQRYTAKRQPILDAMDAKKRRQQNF
Cyclin-dependent kinase 5, sequence (Q00535 whole entry): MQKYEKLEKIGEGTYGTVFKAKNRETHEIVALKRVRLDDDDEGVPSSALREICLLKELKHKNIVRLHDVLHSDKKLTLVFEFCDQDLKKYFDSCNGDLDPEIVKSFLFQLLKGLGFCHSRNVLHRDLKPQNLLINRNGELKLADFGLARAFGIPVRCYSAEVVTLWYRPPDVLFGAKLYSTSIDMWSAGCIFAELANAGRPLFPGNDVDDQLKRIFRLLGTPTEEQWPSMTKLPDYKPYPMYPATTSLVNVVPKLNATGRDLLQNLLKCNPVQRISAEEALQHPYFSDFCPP
Cell division cycle 7-related protein kinase, sequence (O00311 whole entry): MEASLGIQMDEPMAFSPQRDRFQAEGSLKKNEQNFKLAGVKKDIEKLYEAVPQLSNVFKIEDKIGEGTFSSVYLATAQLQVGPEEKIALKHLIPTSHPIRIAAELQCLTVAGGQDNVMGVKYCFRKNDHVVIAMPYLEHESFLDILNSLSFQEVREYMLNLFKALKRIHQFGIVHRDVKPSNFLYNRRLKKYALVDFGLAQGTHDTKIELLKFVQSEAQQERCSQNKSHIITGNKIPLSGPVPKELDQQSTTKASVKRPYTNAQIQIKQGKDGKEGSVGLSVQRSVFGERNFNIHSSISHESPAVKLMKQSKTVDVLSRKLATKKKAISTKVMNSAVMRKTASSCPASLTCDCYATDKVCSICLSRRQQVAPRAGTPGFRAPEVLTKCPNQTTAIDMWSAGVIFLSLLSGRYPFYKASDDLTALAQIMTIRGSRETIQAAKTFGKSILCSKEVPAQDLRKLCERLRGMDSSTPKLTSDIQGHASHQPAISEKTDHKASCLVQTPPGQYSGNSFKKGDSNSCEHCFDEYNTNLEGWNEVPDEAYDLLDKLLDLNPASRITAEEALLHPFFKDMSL
Platelet-derived growth factor receptor alpha, sequence (P16234 whole entry): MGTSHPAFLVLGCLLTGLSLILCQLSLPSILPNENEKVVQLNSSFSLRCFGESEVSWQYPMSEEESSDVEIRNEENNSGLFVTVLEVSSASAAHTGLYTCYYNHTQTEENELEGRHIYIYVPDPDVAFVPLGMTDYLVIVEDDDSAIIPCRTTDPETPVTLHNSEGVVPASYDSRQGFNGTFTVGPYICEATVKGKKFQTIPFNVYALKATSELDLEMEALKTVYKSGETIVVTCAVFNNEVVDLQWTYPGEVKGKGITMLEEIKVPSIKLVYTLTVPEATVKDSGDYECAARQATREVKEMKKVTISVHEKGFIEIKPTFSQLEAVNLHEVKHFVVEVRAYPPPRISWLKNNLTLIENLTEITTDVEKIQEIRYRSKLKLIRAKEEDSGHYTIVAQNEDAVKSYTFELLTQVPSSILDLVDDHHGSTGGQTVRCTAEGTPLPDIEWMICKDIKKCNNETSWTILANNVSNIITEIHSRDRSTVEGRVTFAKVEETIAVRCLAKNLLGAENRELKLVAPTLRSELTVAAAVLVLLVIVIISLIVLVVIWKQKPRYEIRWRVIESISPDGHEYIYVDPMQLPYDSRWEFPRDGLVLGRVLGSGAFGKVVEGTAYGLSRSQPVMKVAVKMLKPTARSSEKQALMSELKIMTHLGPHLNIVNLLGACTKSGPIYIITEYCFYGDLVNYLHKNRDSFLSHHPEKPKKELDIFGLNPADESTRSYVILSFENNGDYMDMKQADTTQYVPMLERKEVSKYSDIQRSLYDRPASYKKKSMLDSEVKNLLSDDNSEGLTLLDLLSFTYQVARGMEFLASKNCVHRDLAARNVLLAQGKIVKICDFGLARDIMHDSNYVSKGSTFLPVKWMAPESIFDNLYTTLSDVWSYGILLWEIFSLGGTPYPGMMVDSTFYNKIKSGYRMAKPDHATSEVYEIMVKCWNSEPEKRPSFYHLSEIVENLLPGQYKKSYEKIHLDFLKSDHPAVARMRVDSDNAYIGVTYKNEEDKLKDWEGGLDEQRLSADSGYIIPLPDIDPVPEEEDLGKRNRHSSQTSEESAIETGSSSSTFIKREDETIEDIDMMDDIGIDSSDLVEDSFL

SMILES: O=C(Nc1cc(-c2c[nH]c3ncccc23)cc(Cl)n1)c1ccccc1
- Ki [1]: > 3.16 µM (inactive)
- Ki [2]: > 2.51 µM (inactive)
- Ki [3]: 0.00158 µM (active)

SMILES: CCN1C(=Cc2sc3ccccc3[n+]2C)C=Cc2cccc(C)c21
- EC50 [4]: > 12 µM (not active)
- AC50 [5]: 1.86 µM (active)
- EC50 [6]: > 180 µM (inactive)

SMILES: O=C(N/N=C/c1c(O)ccc2ccccc12)c1[nH]ncc1Br
- EC50 (cells): 7.76 µM (active)

SMILES: O=C(Cc1ccccc1Cl)NC1(O)C(=O)c2ccccc2C1=O
- EC50 (Protein RecA): 8.18 µM (active)

SMILES: Nc1nnc2c(n1)CCCC2
- EC50 [7]: 59.3 µM (active)

SMILES: Nc1c(-c2ccc(NC(=O)Nc3cccc(C(F)(F)F)c3)cc2)cnc2c(-c3ccc4c(c3)OCO4)cnn12
- Ki [8]: > 3.16 µM (inactive)
- Ki [9]: 0.2 µM (active)
- Ki (LIM domain kinase 1): > 3.16 µM (inactive)
